Holding throughout (assay type): cell-based
The subject of data set [1] is AGS cell strain. Put plainly: Cell growth test (CCK-8 assay) after transfection of BART miRNA mimics. The conditions noted are these: mimic 10 nM, 72 hours after transfection, relative to scrambled control (=1). How it is done:
An AGS cell strain (Korean Cell Line Bank), which is a stomach cancer cell strain, was cultured in an RPMI1640 (Gibco) culture medium including 10% fetal bovine serum. Mature type synthesized BART miRNAs were transfected to the AGS cell strain by using G-fectin (Genolution) according to a protocol of the manufacture.
To investigate the effect of individual EBV BART miRNAs on the AGS cell strain, the synthesized miRNAs were transfected to the AGS cell strain and, after 72 hours, cells were counted by CCK-8 assay.
Immediately after the AGS cell strain, which is an EBV-negative cell strain, was divided into 96-well plate having 1×10^3 cells/well, a synthesized miRNA (10 nM) was transfected by using G-fectin. After the transfection, according to the experimental objective, the cells were cultured at 37° C. in an incubator, and then CCK-8 was divided among the wells by allocating 10 μl of CCK-8 to each well and the resulting mixture was cultured in an incubator at 37° C. for two hours. Then, the light absorbance was measured with an ELISA measuring instrument.
By the method described in Example 3, miR-BART5-5p mimic or miR-BART15-3p mimic (10 nM) were transfected to the AGS cell strain, and the effect thereof on cell growth was investigated over time.
miR-BART5-5p, miR-BART15-3p, and miR-BART20-3p were transfected to the AGS cell strain (1×10^3 cells/well) in a concentration of 1, 3, 10, and 30 nM, and the effect on cell growth was investigated. Immediately after the AGS cell strain was divided into a 96-well plate such that 1×10^3 AGS cells were allocated to each well, a synthesized miRNA was transfected by using G-fectin. Seventy two hours after the transfection, CCK-8 was divided among the wells by allocating 10 μl of CCK-8 to each well, and the resulting mixture was cultured at 37° C. in an incubator for two hours.

Data set [2] concerns AGS cell strain. The data set is described as follows: Effect on cell cycle (propidium iodide staining, FACS, sub G1). The conditions noted are these: mimic 10 nM, 10 uM 5-FU 24 h after transfection, then 48 hours, relative to scrambled control (=1). How it is done: The AGS cells were divided into a 96-well plate such that 2×10^5 AGS cells were allocated to each well, and synthesized miRNAs (10 nM) were transfected and cultured at 37° C. in an incubator. Twenty four hours after the transfection, 10 uM of 5-FU, which is an anti-cancer agent, was treated in one case or not treated in another case, and then the resulting mixture was cultured in an incubator at 37° C. for 48 hours. The cells were detached by using Trypsin-EDTA and washed with PBS two times.
Immediately after the AGS cell strains, which are EBV-negative cell strains, were divided into a 6-well plate such that 2×10^5 AGS cells were allocated to each well, a synthesized miRNA (10 nM) was transfected by using G-fectin and cultured at 37° C. in an incubator. Twenty four hours after the transfection, 10 uM of 5-FU was treated and the resulting mixture was cultured at 37° C. in an incubator for 48 hours. The cells were detached by using Trypsin-EDTA and washed with PBS two times. Afterwards, DNA was stained by propidium iodide staining and the ratio of cells where cell cycle was changed was investigated by FACS.

Data set [3] has as its system AGS cell strain. The data set is described as follows: Measurement of apoptosis (Annexin V staining, FACS). The settings on record: for Relative Apoptotic cell: AGS, mimic 10 nM, 10 uM 5-FU 24 h after transfection, then 48 hours, Annexin V, relative to scrambled control (=1), n=9; for effect on cell growth and apoptosis (summary statement): mimics transfected to AGS, tumor cell strain not infected with EBV. How it is done: Immediately after the AGS cell strain, which is an EBV-negative cell strain, was divided was divided into a 6-well plate such that 2×10^5 AGS cells were allocated to each well, a synthesized miRNA (10 nM) was transfected by using G-fectin and the resulting mixture was cultured at 37 t in an incubatorTwenty four hours after the transfection, 10 uM of 5-FU was treated and the resulting mixture was cultured in an incubator at 37° C. for 48 hours. The cells were detached by using Trypsin-EDTA and washed with PBS two times. Afterwards, the cells were treated with a PE Annexin V Apoptosis Detection Kit and the changed ratio of apoptotic cell was investigated by FACS (FIG. 7).
Immediately after the AGS cell strain, which is an EBV-negative cell strain, is divided into a 6-well plate such that 2×10^5 AGS cells were allocated to each well, a synthesized miRNA (10 nM) was transfected by using G-fectin and the resulting mixture was cultured at 37° C. Twenty four hours after the transfection, 10 uM of 5-FU, which is an anti-cancer agent, was treated and the resulting mixture was cultured in an incubator at 37° C. for 48 hours. The cells were detached by using Trypsin-EDTA and washed with PBS two times. Afterwards, the cells were treated with a PE Annexin V Apoptosis Detection Kit and the ratio of cells where apoptosis took place was measured by FACS.

Take “BART10-5p: EBV BART miRNA mimic, double stranded RNA; sense SEQ NO: 57, antisense SEQ NO: 58 (sense GCCACCUCUUUGGUUCUGUACA; antisense UGUACAGAACCAAAGAGGUGGC; chemistry not given here)”: the “Relative Cell Growth” value in the data set with AGS cell strain [1] (n=9) was determined as 1.646. Further, the “Relative Sub G1” value in the data set with AGS cell strain [2] was 0.833. Moreover, the “Relative Apoptotic cell” value in the data set on AGS cell strain [3] amounted to 0.8373.

Regarding “BART9-5p: EBV BART miRNA mimic, double stranded RNA; sense SEQ NO: 49, antisense SEQ NO: 50 (sense UACUGGACCCUGAAUUGGAAAC; antisense GUUUCCAAUUCAGGGUCCAGUA; chemistry not given here)”, the “Relative Cell Growth” value in the data set on AGS cell strain [1] (n=9) was 1.482. Moreover, the “Relative Sub G1” value in the data set on AGS cell strain [2] came out at 1.005. Besides, in the data set on AGS cell strain [3], the “Relative Apoptotic cell” value was found to be 1.25; the “effect on cell growth and apoptosis (summary statement)” value (from here on “effect on cell growth and apoptosis”) is “inhibit cell growth and promote apoptosis”. Further, the “Relative Apoptotic cell” value with AGS cell strain [3] (listed as 9-5p) is given as “significantly higher”.

In the case of “BART6-5p: EBV BART miRNA mimic, double stranded RNA; sense SEQ NO: 29, antisense SEQ NO: 30 (sense UAAGGUUGGUCCAAUCCAUAGG; antisense CCUAUGGAUUGGACCAACCUUA; chemistry not given here)”, the “Relative Cell Growth” value in the data set with AGS cell strain [1] (n=9) is 0.881. Besides, the “Relative Sub G1” value in the data set on AGS cell strain [2] was determined as 1.023. The “Relative Apoptotic cell” value in the data set with AGS cell strain [3] is recorded as 1.117.

With “BART13-3p: EBV BART miRNA mimic, double stranded RNA; sense SEQ NO: 79, antisense SEQ NO: 80 (sense UGUAACUUGCCAGGGACGGCUGA; antisense UCAGCCGUCCCUGGCAAGUUACA; chemistry not given here)”, the “Relative Cell Growth” value with AGS cell strain [1] (n=9) is 1.255. For the same substance, the “Relative Sub G1” value in the data set with AGS cell strain [2] worked out at 0.9813. In addition, in the data set with AGS cell strain [3], the “Relative Apoptotic cell” value came to 1.187; the “effect on cell growth and apoptosis” value is “inhibit cell growth and promote apoptosis”. Besides, in the data set on AGS cell strain [3] (listed as 13-3p), the “Relative Apoptotic cell” value is recorded as “significantly higher”.

Regarding “BART1-3p: EBV BART miRNA mimic, double stranded RNA; sense SEQ NO: 11, antisense SEQ NO: 12 (sense UAGCACCGCUAUCCACUAUGUC; antisense GACAUAGUGGAUAGCGGUGCUA; chemistry not given here)”, the “Relative Cell Growth” value with AGS cell strain [1] (n=9) is reported as 1.201. For the same substance, the “Relative Sub G1” value in the data set with AGS cell strain [2] stood at 0.7947. For the same substance, the “Relative Apoptotic cell” value in the data set on AGS cell strain [3] is 0.9231.

On to “BART14-3p: EBV BART miRNA mimic, double stranded RNA; sense SEQ NO: 83, antisense SEQ NO: 84 (sense UAAAUGCUGCAGUAGUAGGGAU; antisense AUCCCUACUACUGCAGCAUUUA; chemistry not given here)”, for which the “Relative Cell Growth” value in the data set on AGS cell strain [1] (n=9) is recorded as 1.447. Besides, in the data set on AGS cell strain [2], the “Relative Sub G1” value came to 0.8757. For the same substance, in the data set with AGS cell strain [3], the “Relative Apoptotic cell” value stood at 0.9426.

Take “BART17-5p: EBV BART miRNA mimic, double stranded RNA; sense SEQ NO: 25, antisense SEQ NO: 26 (sense UAAGAGGACGCAGGCAUACAAG; antisense CUUGUAUGCCUGCGUCCUCUUA; chemistry not given here)”: in the data set with AGS cell strain [1] (n=9), the “Relative Cell Growth” value was determined as 0.9551. For the same substance, the “Relative Sub G1” value in the data set on AGS cell strain [2] was found to be 1.099. Moreover, the “Relative Apoptotic cell” value with AGS cell strain [3] is recorded as 1.004.

Turning to “BART5-3p: EBV BART miRNA mimic, double stranded RNA; sense SEQ NO: 19, antisense SEQ NO: 20 (sense GUGGGCCGCUGUUCACCU; antisense AGGUGAACAGCGGCCCAC; chemistry not given here)”, in the data set with AGS cell strain [1] (n=9), the “Relative Cell Growth” value turned out to be 0.9583. The “Relative Sub G1” value with AGS cell strain [2] was 0.9486. For the same substance, in the data set with AGS cell strain [3], the “Relative Apoptotic cell” value is 1.17; the “effect on cell growth and apoptosis” value was “inhibit cell growth and promote apoptosis”.

Consider “BART16-5p: EBV BART miRNA mimic, double stranded RNA; sense SEQ NO: 21, antisense SEQ NO: 22 (sense UUAGAUAGAGUGGGUGUGUGCUCU; antisense AGAGCACACACCCACUCUAUCUAA; chemistry not given here)”, for which the “Relative Cell Growth” value in the data set with AGS cell strain [1] (n=9) is 0.705; in the data set on AGS cell strain [1] (n=9, listed as miR-BART16-5p), “inhibited cell growth”. For the same substance, the “Relative Sub G1” value is recorded as 1.182 in the data set on AGS cell strain [2] and “increased” in the data set with AGS cell strain [2] (listed as 16-5p). Moreover, the “Relative Apoptotic cell” value is 1.312 in the data set on AGS cell strain [3] and “significantly higher” in the data set with AGS cell strain [3] (listed as 16-5p). Moreover, the “effect on cell growth and apoptosis” value in the data set on AGS cell strain [3] is “inhibit cell growth and promote apoptosis”.

In the case of “BART16-3p: EBV BART miRNA mimic, double stranded RNA; sense SEQ NO: 23, antisense SEQ NO: 24 (sense AUCACCACCCUCUAUCCAUAU; antisense AUAUGGAUAGAGGGUGGUGAU; chemistry not given here)”, the “Relative Cell Growth” value in the data set with AGS cell strain [1] (n=9) was 1.159. Also, the “Relative Sub G1” value with AGS cell strain [2] is recorded as 0.9852. In the data set on AGS cell strain [3], the “Relative Apoptotic cell” value worked out at 1.37; the “effect on cell growth and apoptosis” value is “inhibit cell growth and promote apoptosis”. For the same substance, the “Relative Apoptotic cell” value with AGS cell strain [3] (listed as 16-3p) is “significantly higher”.

On to “BART18-3p: EBV BART miRNA mimic, double stranded RNA; sense SEQ NO: 39, antisense SEQ NO: 40 (sense UAUCGGAAGUUUGGGCUUCGUC; antisense GACGAAGCCCAAACUUCCGAUA; chemistry not given here)”, for which, in the data set with AGS cell strain [1] (n=9), the “Relative Cell Growth” value amounted to 1.393. Moreover, the “Relative Sub G1” value with AGS cell strain [2] was found to be 0.9963. Besides, in the data set with AGS cell strain [3], the “Relative Apoptotic cell” value turned out to be 0.8705.

Turning to “BART9-3p: EBV BART miRNA mimic, double stranded RNA; sense SEQ NO: 51, antisense SEQ NO: 52 (sense UAACACUUCAUGGGUCCCGUAGU; antisense ACUACGGGACCCAUGAAGUGUUA; chemistry not given here)”, the “Relative Cell Growth” value in the data set with AGS cell strain [1] (n=9) amounted to 1.569. Moreover, the “Relative Sub G1” value in the data set on AGS cell strain [2] came out at 0.8669. In addition, the “Relative Apoptotic cell” value with AGS cell strain [3] is 0.7948.

“BART22-3p: EBV BART miRNA mimic, double stranded RNA; sense SEQ NO: 55, antisense SEQ NO: 56 (sense UUACAAAGUCAUGGUCUAGUAGU; antisense ACUACUAGACCAUGACUUUGUAA; chemistry not given here)”: in the data set with AGS cell strain [1] (n=9), the “Relative Cell Growth” value was found to be 1.495. For the same substance, in the data set with AGS cell strain [2], the “Relative Sub G1” value is 1.054. Also, the “Relative Apoptotic cell” value in the data set with AGS cell strain [3] came to 1.106.

These data come from US9243247B2, “Composition for promoting apoptosis or inhibiting cell growth, comprising epstein-barr virus microrna” (Catholic University Industry Academic Cooperation Foundation, priority 2011, dated 2016).
